Type in all cases: cell-based
One test concerns the target T1, IRAK4 (Homo sapiens, UniProt Q9NWZ3).
T1 construct: expression of target proteins in cells; endogenous in cells
T1 sequence (Q9NWZ3 1-460): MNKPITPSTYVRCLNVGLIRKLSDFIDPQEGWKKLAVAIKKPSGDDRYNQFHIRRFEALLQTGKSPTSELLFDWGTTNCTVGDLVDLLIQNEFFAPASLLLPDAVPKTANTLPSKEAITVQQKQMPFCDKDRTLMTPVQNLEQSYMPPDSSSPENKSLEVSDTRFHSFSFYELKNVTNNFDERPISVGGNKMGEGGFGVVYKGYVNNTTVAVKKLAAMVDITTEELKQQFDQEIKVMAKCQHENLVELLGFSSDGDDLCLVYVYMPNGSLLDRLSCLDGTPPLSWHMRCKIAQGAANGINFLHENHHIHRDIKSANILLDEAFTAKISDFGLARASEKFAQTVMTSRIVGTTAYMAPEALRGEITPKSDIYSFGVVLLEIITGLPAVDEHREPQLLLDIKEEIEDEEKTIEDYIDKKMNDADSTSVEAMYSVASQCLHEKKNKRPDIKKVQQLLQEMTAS
As to the kind of experiment: Western blot degradation of IRAK4. The note with it: hPBMC Cell; 24 hours. The procedure, abridged: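 Cells treated with compound, lysed, and target protein detected by Western blot (SDS-PAGE, nitrocellulose transfer). DC50 taken as the concentration giving band grayscale half that of DMSO control, estimated by concentration-response fitting; remaining protein (%) from target band normalised to internal control band; degradation (%) = 1 − remaining.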
(A western blot detects proteins with antibodies after separation by electrophoresis.)

For test [1], the system named is Human Multiple myeloma cell line (MM.1S). As to the kind of experiment: Inhibition of MM.1S cell proliferation (CellTiter luminescent viability). The settings on record: Table IA1, IRAK4 inhibitor-based, 96 hours, read-out: Inhibitory activity (IC50, nM) on tumor cell proliferation, MM.1S. As for the experimental part:
The tumor cells used herein were cultured in a cell culture medium listed in table 3 at 37 °C in an incubator with 5% CO2. Prior to experimentation, all cell lines used were correctly identified by STR profiling, and tested negative for mycoplasma contamination using a mycoplasma detection kit through routine screenings.
The IC50 values of the compounds of the present disclosure (including the compounds in Table 1, Table 2, and Examples 1-468) were determined using the CellTiter-Meiluncell Luminescent Cell Viability Assay Kit from Dalian Meilun Biotech Co., Ltd. The detailed procedure is as follows: Tumor cells were seeded in 96-well cell culture plates at the densities specified in Table 4. On the following day, the test compounds of the present disclosure were subjected to serial dilution. The dilution can be performed according to one of the following two methods: • (1) The first dilution method: The test compounds of the present disclosure (including the compounds in Table 1, Table 2, and Examples 1-468) were subjected to 5-fold serial dilutions starting from a highest concentration of 2000 μM, resulting in a total of 9 concentrations from high to low (2000, 400, 80, 16, 3.2, 0.64, 0.128, 0.0256, 0.00512 μM). Subsequently, 0.5 μL of the test compound dilution was transferred into the 96-well plate containing the cells, with each well containing 100 μL of cell culture medium. […] Into the 96-well plate, the diluted test compounds and corresponding detection reagents were added, resulting in final test compound concentrations of 500 nM and 10 nM, respectively. The experimental procedure is described below using the diluted 2 μM test compound as an example.
0.5 μL of the aforementioned diluted compound of the present disclosure (including the compounds in Table 1, Table 2, and Examples 1-468) was added to the seeded cells in 100 μL of medium, yielding a final test compound concentration of 10 nM. After the cells were treated with the compounds of the present disclosure for a specified period, the cell viability assay reagent was added to the culture medium according to the kit's instructions to determine cell viability. […] All controls were treated using the same procedure as the compounds of the present disclosure. The growth inhibition curves for the compounds of the present disclosure were plotted using Prism GraphPad software, and the IC50 values were calculated therefrom.

Test [2] relates to Human myeloid monocytic leukemia cell line (MV-4-11). As to the kind of experiment: Inhibition of MV-4-11 cell proliferation (CellTiter luminescent viability). The settings on record: Homo sapiens, MV4-11, Table IA3, IRAK4 inhibitor-based, 96 hours; for inhibition at 0.01 µM: MV-4-11, 10 nM, read-out: Inhibition Rate at 10 nM (%); for inhibition at 0.5 µM: MV-4-11, 500 nM, read-out: Inhibition Rate at 500 nM (%). The procedure, abridged:
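Cells are seeded in 96-well plates, cultured at 37 °C, 5% CO2, and treated next day with 5-fold serial compound dilutions (stock series from 2000 μM; 0.5 μL into 100 μL medium). Viability is read by CellTiter-Meiluncell luminescence after the set exposure, and IC50 is taken from growth-inhibition curves.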

The results in this text go back to patent publication US20260364184A1, “COMPOUND BASED ON OXOISOINDOLINYL-SUBSTITUTED TETRAHYDROPYRIMIDINE-DIONE AND USE THEREOF” (GLUETACS THERAPEUTICS (SHANGHAI) CO., LTD., priority 2023, published 2026).

Usually inhibition stands for the drop in the measured response relative to a control, in per cent.

Take `O=C1CCN(N2C(=O)c3ccc(N4CCC(CN5CCC(n6cc(NC(=O)c7coc(-c8ccnc(NCC9CC9)c8)n7)c(C(F)F)n6)CC5)CC4)cc3C2=O)C(=O)N1` [GT-04953, 2-(2-((cyclopropylmethyl)amino)pyridin-4-yl)-N-(3-(difluoromethyl)-1-(1-((1-(2-(2,4-dioxotetrahydropyrimidin-1(2H)-yl)-1,3-dioxoisoindolin-5-yl)piperidin-4-yl)methyl)piperidin-4-yl)-1H-pyrazol-4-yl) oxazole-4-carboxamide]: the “Degradation of substrate protein IRAK4 (substrate protein remaining %)” value (“Degradation … (substrate protein remaining %)” below) at IRAK4 is “A (0%≤substrate protein remaining %≤80%)”. For the same compound, the IC50 in test [1] was in the range of 500 to 1000 nM. Consider `O=C1CCN(N2C(=O)c3ccc(N4C[C@H]5C[C@@H]4CN5C[C@H]4CC[C@H](n5cc(NC(=O)c6cnn7ccc(N8C[C@H]9C[C@@H]8CO9)nc67)c(C(F)F)n5)CC4)cc3C2=O)C(=O)N1` [GT-05238, 5-((1R,4R)-2-oxa-5-azabicyclo[2.2.1]heptan-5-yl)-N-(3-(difluoromethyl)-1-((1R,4R)-4-(((1R,4R)-5-(2-(2,4-dioxotetrahydropyrimidin-1(2H)-yl)-1,3-dioxoisoindolin-5-yl)-2,5-diazabicyclo[2.2.1]heptan-2-yl)methyl)cyclohexyl)-1H-pyrazol-4-yl)pyrazolo[1,5-a]pyrimidine-3-carboxamide], for which, at IRAK4, the “Degradation … (substrate protein remaining %)” value is reported as “A (0%≤substrate protein remaining %≤80%)”. Also, in test [2], the inhibition at 0.01 µM was in the range of 20 to 36% and the inhibition at 0.5 µM was 60 to 80%. As for `O=C1CCN(N2C(=O)c3cccc(N4CCC(CN5CCN(c6ccc7c(c6)nc(NC(=O)c6cccc(C(F)(F)F)c6)n7[C@H]6CC[C@@H](CO)CC6)CC5)CC4)c3C2=O)C(=O)N1` [GT-05325, N-(5-(4-((1-(2-(2,4-dioxotetrahydropyrimidin-1(2H)-yl)-1,3-dioxoisoindolin-4-yl)piperidin-4-yl)methyl)piperazin-1-yl)-1-((1s,4s)-4-(hydroxymethyl)cyclohexyl)-1H-benzo[d]imidazol-2-yl)-3-(trifluoromethyl)benzamide], the “Degradation … (substrate protein remaining %)” value at IRAK4 was “A (0%≤substrate protein remaining %≤80%)”. In test [2], the inhibition at 0.01 µM was -15 to -10% and the inhibition at 0.5 µM was 60 to 80%. For `COc1cc2nn(C3CCN(CC4CCN(c5cccc6c5C(=O)N(N5CCC(=O)NC5=O)C6=O)CC4)CC3)cc2cc1NC(=O)c1cccc(C(F)(F)F)n1` [GT-05817, N-(2-(1-((1-(2-(2,4-dioxotetrahydropyrimidin-1(2H)-yl)-1,3-dioxoisoindolin-4-yl)piperidin-4-yl)methyl)piperidin-4-yl)-6-methoxy-2H-indazol-5-yl)-6-(trifluoromethyl) picolinamide], the “Degradation … (substrate protein remaining %)” value on IRAK4 is recorded as “A (0%≤substrate protein remaining %≤80%)”. In test [2], the inhibition at 0.01 µM is -5 to 0% and the inhibition at 0.5 µM is 50 to 60%. Consider `COc1cc2nn([C@H]3CC[C@H](CN4C[C@@H]5C[C@H]4CN5c4ccc5c(c4)C(=O)N(N4CCC(=O)NC4=O)C5=O)CC3)cc2cc1NC(=O)c1cccc(C(F)(F)F)c1` [GT-08662, N-(2-((1S,4r)-4-(((1S,4S)-5-(2-(2,4-dioxotetrahydropyrimidin-1(2H)-yl)-1,3-dioxoisoindolin-5-yl)-2,5-diazabicyclo[2.2.1]heptan-2-yl)methyl)cyclohexyl)-6-methoxy-2H-indazol-5-yl)-3-(trifluoromethyl)benzamide], for which the “Degradation … (substrate protein remaining %)” value at IRAK4 was “A (0%≤substrate protein remaining %≤80%)”. As to `COc1cc2nn([C@H]3CC[C@H](CN4C5CC4CN(c4ccc6c(c4)C(=O)N(N4CCC(=O)NC4=O)C6=O)C5)CC3)cc2cc1NC(=O)c1cccc(C(F)(F)F)c1` [GT-08666, N-(2-((1r,4r)-4-((3-(2-(2,4-dioxotetrahydropyrimidin-1(2H)-yl)-1,3-dioxoisoindolin-5-yl)-3,6-diazabicyclo[3.1.1]heptan-6-yl)methyl)cyclohexyl)-6-methoxy-2H-indazol-5-yl)-3-(trifluoromethyl)benzamide], on IRAK4, the “Degradation … (substrate protein remaining %)” value was “A (0%≤substrate protein remaining %≤80%)”. For the compound `COc1cc2nn([C@H]3CC[C@H](CN4CCN(c5cc(F)c6c(c5)C(=O)N(N5CCC(=O)NC5=O)C6=O)CC4)CC3)cc2cc1NC(=O)c1cccc(C(F)(F)F)c1` [GT-08670, N-(2-((1r,4r)-4-((4-(2-(2,4-dioxotetrahydropyrimidin-1(2H)-yl)-7-fluoro-1,3-dioxoisoindolin-5-yl)piperazin-1-yl)methyl)cyclohexyl)-6-methoxy-2H-indazol-5-yl)-3-(trifluoromethyl)benzamide], the “Degradation … (substrate protein remaining %)” value at IRAK4 was “A (0%≤substrate protein remaining %≤80%)”. Still for that read-out and setting: as for `COc1cc2nn([C@H]3CC[C@H](CN4CCN(C5CCN(c6ccc7c(c6)C(=O)N(N6CCC(=O)NC6=O)C7=O)CC5)CC4)CC3)cc2cc1NC(=O)c1cccc(C(F)(F)F)c1` [GT-08671, N-(2-((1r,4r)-4-((4-(1-(2-(2,4-dioxotetrahydropyrimidin-1(2H)-yl)-1,3-dioxoisoindolin-5-yl)piperidin-4-yl)piperazin-1-yl)methyl)cyclohexyl)-6-methoxy-2H-indazol-5-yl)-3-(trifluoromethyl)benzamide], the entry is “A (0%≤substrate protein remaining %≤80%)”; as for `COc1cc2nn([C@H]3CC[C@H](CN4CCN(C5CCN(c6ccc7c(c6)C(=O)N(N6CCC(=O)NC6=O)C7=O)CC5(F)F)CC4)CC3)cc2cc1NC(=O)c1cccc(C(F)(F)F)c1` (some centres unmarked) [GT-08672, N-(2-((1r,4r)-4-((4-(1-(2-(2,4-dioxotetrahydropyrimidin-1(2H)-yl)-1,3-dioxoisoindolin-5-yl)-3,3-difluoropiperidin-4-yl)piperazin-1-yl)methyl)cyclohexyl)-6-methoxy-2H-indazol-5-yl)-3-(trifluoromethyl)benzamide], “A (0%≤substrate protein remaining %≤80%)”. On the same count and under the same terms, as for `COc1cc2nn([C@H]3CC[C@H](CN4CC5CCC4CN5c4ccc5c(c4)C(=O)N(N4CCC(=O)NC4=O)C5=O)CC3)cc2cc1NC(=O)c1cccc(C(F)(F)F)c1` (some centres unmarked) [GT-08673, N-(2-((1r,4r)-4-((5-(2-(2,4-dioxotetrahydropyrimidin-1(2H)-yl)-1,3-dioxoisoindolin-5-yl)-2,5-diazabicyclo[2.2.2]octan-2-yl)methyl)cyclohexyl)-6-methoxy-2H-indazol-5-yl)-3-(trifluoromethyl)benzamide], the entry is “A (0%≤substrate protein remaining %≤80%)”.
